Source: patent US20140213513A1 (Sanofi, priority 2012, published 2014)
*1 amine or outer side, *2 acyl side, *3 side chain or, on linkers, in order; H or OH if unused. Where a SMILES comes first, the peptide text is derived from it. Side-chain parts run from the residue outwards. [ ]: non-standard residue; d: D form. The star is where a group is joined. γGlu = O=C(O)[C@H](CCC(=O)[*:2])N[*:1]; Palmitoyl = CCCCCCCCCCCCCCCC(=O)*; Aib = CC(C)(N)C(=O)O

Key:
Assay type in all cases: cell-based
Settings in all cases: Table 7; cAMP formation
[1] = molecular target: T1, human GLP-1 receptor (hGLP-1 R) (Homo sapiens, UniProt P43220); experiment: cAMP response of HEK-293 cells stably expressing human GLP-1 receptor (HTRF)
T1 construct: expressed in transfected cells
Procedure: (§1) cAMP content of cells was determined using a kit from Cisbio Corp. (cat. no. 62AM4PEC) based on HTRF (Homogenous Time Resolved Fluorescence). For preparation, cells were split into T175 culture flasks and grown overnight to near confluency in medium (DMEM/10% FBS). Medium was then removed and cells washed with PBS lacking calcium and magnesium, followed by proteinase treatment with accutase (Sigma-Aldrich cat. no. A6964). Detached cells were washed and resuspended in assay buffer (1×HBSS; 20 mM HEPES, 0.1% BSA, 2 mM IBMX) and cellular density determined. They were then diluted to 400000 cells/ml and 25 μl-aliquots dispensed into the wells of 96-well plates. For measurement, 25 μl of test compound in assay buffer was added to the wells, followed by incubation for 30 minutes at room temperature.

[2] = molecular target: T2, human glucagon receptor (hGLUC R) (Homo sapiens, UniProt P47871); experiment: cAMP response of HEK-293 cells stably expressing human glucagon receptor (HTRF)
T2 construct: expressed in transfected cells
Procedure: as §1

[3] = molecular target: T3, human GIP receptor (hGIP R) (Homo sapiens, UniProt P48546); experiment: cAMP response of HEK-293 cells stably expressing human GIP receptor (HTRF)
T3 construct: expressed in transfected cells
T3 sequence (P48546 22-466): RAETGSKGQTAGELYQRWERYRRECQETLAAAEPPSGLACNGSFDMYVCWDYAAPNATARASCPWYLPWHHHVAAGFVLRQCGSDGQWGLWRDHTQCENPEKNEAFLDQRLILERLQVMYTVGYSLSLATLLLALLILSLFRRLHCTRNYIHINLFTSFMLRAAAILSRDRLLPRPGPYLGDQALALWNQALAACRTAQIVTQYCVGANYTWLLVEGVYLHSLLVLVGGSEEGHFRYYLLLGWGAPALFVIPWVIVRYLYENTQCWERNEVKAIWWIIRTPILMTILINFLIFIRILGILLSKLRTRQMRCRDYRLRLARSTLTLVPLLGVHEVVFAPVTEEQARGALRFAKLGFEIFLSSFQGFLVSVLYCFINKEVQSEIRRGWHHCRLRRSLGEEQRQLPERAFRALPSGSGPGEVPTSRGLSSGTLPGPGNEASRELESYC
Procedure: as §1

T1 sequence (P43220 24-463): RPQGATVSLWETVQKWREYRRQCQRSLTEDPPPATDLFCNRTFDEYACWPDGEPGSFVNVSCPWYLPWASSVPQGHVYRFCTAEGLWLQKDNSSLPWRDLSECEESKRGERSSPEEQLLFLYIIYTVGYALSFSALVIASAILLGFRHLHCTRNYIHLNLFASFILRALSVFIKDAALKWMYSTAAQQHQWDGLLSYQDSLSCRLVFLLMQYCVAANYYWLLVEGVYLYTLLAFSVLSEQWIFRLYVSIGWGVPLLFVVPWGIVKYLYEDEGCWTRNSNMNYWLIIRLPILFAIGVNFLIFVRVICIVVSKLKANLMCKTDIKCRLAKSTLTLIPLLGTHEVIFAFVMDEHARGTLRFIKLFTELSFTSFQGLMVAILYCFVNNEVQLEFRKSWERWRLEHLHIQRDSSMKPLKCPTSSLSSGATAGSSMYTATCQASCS
T2 sequence (P47871 26-477): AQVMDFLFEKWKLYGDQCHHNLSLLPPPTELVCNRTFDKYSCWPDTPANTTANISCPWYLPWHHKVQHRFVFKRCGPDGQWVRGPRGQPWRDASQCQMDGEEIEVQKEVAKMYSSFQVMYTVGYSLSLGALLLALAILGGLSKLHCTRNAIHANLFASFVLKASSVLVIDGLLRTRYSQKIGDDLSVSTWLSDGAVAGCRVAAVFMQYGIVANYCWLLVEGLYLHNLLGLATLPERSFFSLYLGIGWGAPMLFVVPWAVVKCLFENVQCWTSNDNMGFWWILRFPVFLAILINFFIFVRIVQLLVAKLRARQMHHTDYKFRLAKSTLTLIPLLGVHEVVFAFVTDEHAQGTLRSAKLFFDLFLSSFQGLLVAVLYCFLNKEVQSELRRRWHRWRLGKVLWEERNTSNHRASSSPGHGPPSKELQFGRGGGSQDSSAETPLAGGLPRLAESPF

Compound | EC50 [1] | EC50 [2] | EC50 [3]
CCCCCCCCCCCCCCCC(=O)N[C@@H](CCC(=O)NCCCC[C@H](NC(=O)[C@H](CCC(N)=O)NC(=O)[C@@H](NC(=O)[C@H](CO)NC(=O)[C@H](CC(C)C)NC(=O)[C@H](CC(=O)O)NC(=O)[C@H](CO)NC(=O)[C@@H](NC(=O)[C@H](Cc1ccccc1)NC(=O)[C@@H](NC(=O)CNC(=O)[C@H](CCC(N)=O)NC(=O)C(C)(C)NC(=O)[C@@H](N)Cc1ccc(O)cc1)[C@@H](C)O)[C@@H](C)O)[C@@H](C)CC)C(=O)N[C@@H](CCC(=O)O)C(=O)N[C@@H](CCCCN)C(=O)N[C@@H](CCCNC(=N)N)C(=O)N[C@@H](CC(C)C)C(=O)N[C@@H](C)C(=O)NC(C)(C)C(=O)N[C@@H](CCC(=O)O)C(=O)N[C@@H](Cc1ccccc1)C(=O)N[C@H](C(=O)N[C@@H](CCC(=O)O)C(=O)N[C@@H](Cc1c[nH]c2ccccc12)C(=O)N[C@@H](CC(C)C)C(=O)N[C@@H](CCCCN)C(=O)N[C@@H](CC(N)=O)C(=O)N[C@H](C(=O)NCC(=O)N1CCC[C@H]1C(=O)N[C@@H](CO)C(=O)N[C@@H](CO)C(=O)NCC(=O)N[C@@H](C)C(=O)N1CCC[C@H]1C(=O)N1CCC[C@H]1C(=O)N1CCC[C@H]1C(=O)N[C@@H](CO)C(N)=O)[C@@H](C)O)[C@@H](C)CC)C(=O)O [SEQ ID NO: 19, Y-Aib-Q-G-T-F-T-S-D-L-S-I-Q-K(yE-x53)-E-K-R-L-A-Aib-E-F-I-E-W-L-K-N-T-G-P-S-S-G-A-P-P-P-S-NH2] (H-Y[Aib]QGTFTSDLSIQK([γGlu-Palmitoyl])EKRLA[Aib]EFIEWLKNTGPSSGAPPPS-NH2) | 0.0085 nM | 0.137 nM | 0.0915 nM
CCCCCCCCCCCCCCCC(=O)N[C@@H](CCC(=O)NCCCC[C@H](NC(=O)[C@H](CCC(N)=O)NC(=O)[C@@H](NC(=O)[C@H](CO)NC(=O)[C@H](CC(C)C)NC(=O)[C@H](CC(=O)O)NC(=O)[C@H](CO)NC(=O)[C@@H](NC(=O)[C@H](Cc1ccccc1)NC(=O)[C@@H](NC(=O)CNC(=O)[C@H](CCC(=O)O)NC(=O)C(C)(C)NC(=O)[C@@H](N)Cc1ccc(O)cc1)[C@@H](C)O)[C@@H](C)O)[C@@H](C)CC)C(=O)N[C@@H](CCC(=O)O)C(=O)N[C@@H](CCC(=O)O)C(=O)N[C@@H](CCC(N)=O)C(=O)N[C@@H](C)C(=O)N[C@@H](C)C(=O)N[C@@H](Cc1c[nH]cn1)C(=O)N[C@@H](CCC(=O)O)C(=O)N[C@@H](Cc1ccccc1)C(=O)N[C@H](C(=O)N[C@@H](CCC(=O)O)C(=O)N[C@@H](Cc1c[nH]c2ccccc12)C(=O)N[C@@H](CC(C)C)C(=O)N[C@@H](CCCCN)C(=O)N[C@@H](CCCNC(=N)N)C(=O)NC(C)(C)C(=O)NCC(=O)N1CCC[C@H]1C(=O)N[C@@H](CO)C(=O)N[C@@H](CO)C(=O)NCC(=O)N[C@@H](C)C(=O)N1CCC[C@H]1C(=O)N1CCC[C@H]1C(=O)N1CCC[C@H]1C(=O)N[C@@H](CO)C(N)=O)[C@@H](C)CC)C(=O)O [SEQ ID NO: 38, Y-Aib-E-G-T-F-T-S-D-L-S-I-Q-K(yE-x53)-E-E-Q-A-A-H-E-F-I-E-W-L-K-R-Aib-G-P-S-S-G-A-P-P-P-S-NH2] | 0.009 nM | 22.5 nM | 0.0074 nM
CCCCCCCCCCCCCCCC(=O)N[C@@H](CCC(=O)NCCCC[C@H](NC(=O)[C@H](CCC(N)=O)NC(=O)[C@@H](NC(=O)[C@H](CO)NC(=O)[C@H](CC(C)C)NC(=O)[C@H](CC(=O)O)NC(=O)[C@H](CO)NC(=O)[C@@H](NC(=O)[C@H](Cc1ccccc1)NC(=O)[C@@H](NC(=O)CNC(=O)[C@H](CCC(N)=O)NC(=O)C(C)(C)NC(=O)[C@@H](N)Cc1ccc(O)cc1)[C@@H](C)O)[C@@H](C)O)[C@@H](C)CC)C(=O)N[C@@H](CC(=O)O)C(=O)N[C@@H](CO)C(=O)N[C@@H](CCCNC(=N)N)C(=O)N[C@@H](C)C(=O)N[C@@H](C)C(=O)N[C@@H](CCC(N)=O)C(=O)N[C@@H](CC(=O)O)C(=O)N[C@@H](Cc1ccccc1)C(=O)N[C@H](C(=O)N[C@@H](CCC(=O)O)C(=O)N[C@@H](Cc1c[nH]c2ccccc12)C(=O)N[C@@H](CC(C)C)C(=O)N[C@@H](CCCCN)C(=O)N[C@@H](CCCNC(=N)N)C(=O)NCC(=O)NCC(=O)N1CCC[C@H]1C(=O)N[C@@H](CO)C(=O)N[C@@H](CO)C(=O)NCC(=O)N[C@@H](C)C(=O)N1CCC[C@H]1C(=O)N1CCC[C@H]1C(=O)N1CCC[C@H]1C(=O)N[C@@H](CO)C(N)=O)[C@@H](C)CC)C(=O)O [SEQ ID NO: 34, Y-Aib-Q-G-T-F-T-S-D-L-S-I-Q-K(yE-x53)-DSRAAQDFIEWLKRGGPSSGAPPPS-NH2] (H-Y[Aib]QGTFTSDLSIQK([γGlu-Palmitoyl])DSRAAQDFIEWLKRGGPSSGAPPPS-NH2) | 0.0074 nM | 0.222 nM | 0.0513 nM
CCCCCCCCCCCCCCCC(=O)N[C@@H](CCC(=O)NCCCC[C@H](NC(=O)[C@H](CCC(N)=O)NC(=O)[C@@H](NC(=O)[C@H](CO)NC(=O)[C@H](CC(C)C)NC(=O)[C@H](CC(=O)O)NC(=O)[C@H](CO)NC(=O)[C@@H](NC(=O)[C@H](Cc1ccccc1)NC(=O)[C@@H](NC(=O)CNC(=O)[C@H](CCC(N)=O)NC(=O)C(C)(C)NC(=O)[C@@H](N)Cc1ccc(O)cc1)[C@@H](C)O)[C@@H](C)O)[C@@H](C)CC)C(=O)N[C@@H](CCC(=O)O)C(=O)N[C@@H](CCCCN)C(=O)N[C@@H](CCCNC(=N)N)C(=O)N[C@@H](C)C(=O)N[C@@H](C)C(=O)N[C@@H](Cc1c[nH]cn1)C(=O)N[C@@H](CCC(=O)O)C(=O)N[C@@H](Cc1ccccc1)C(=O)N[C@H](C(=O)N[C@@H](CCC(=O)O)C(=O)N[C@@H](Cc1c[nH]c2ccccc12)C(=O)N[C@@H](CC(C)C)C(=O)N[C@@H](CCCCN)C(=O)N[C@@H](CC(N)=O)C(=O)N[C@H](C(=O)NCC(=O)N1CCC[C@H]1C(=O)N[C@@H](CO)C(=O)N[C@@H](CO)C(=O)NCC(=O)N[C@@H](C)C(=O)N1CCC[C@H]1C(=O)N1CCC[C@H]1C(=O)N1CCC[C@H]1C(=O)N[C@@H](CO)C(N)=O)[C@@H](C)O)[C@@H](C)CC)C(=O)O [SEQ ID NO: 36, Y-Aib-Q-G-T-F-T-S-D-L-S-I-Q-K(yE-x53)-EKRAAHEFIEWLKNTGPSSGAPPPS-NH2] (H-Y[Aib]QGTFTSDLSIQK([γGlu-Palmitoyl])EKRAAHEFIEWLKNTGPSSGAPPPS-NH2) | 0.0052 nM | 0.0395 nM | 0.0301 nM
CCCCCCCCCCCCCCCC(=O)N[C@@H](CCC(=O)NCCCC[C@H](NC(=O)[C@H](CCC(N)=O)NC(=O)[C@@H](NC(=O)[C@H](CO)NC(=O)[C@H](CC(C)C)NC(=O)[C@H](CC(=O)O)NC(=O)[C@H](CO)NC(=O)[C@@H](NC(=O)[C@H](Cc1ccccc1)NC(=O)[C@@H](NC(=O)CNC(=O)[C@H](CCC(N)=O)NC(=O)C(C)(C)NC(=O)[C@@H](N)Cc1ccc(O)cc1)[C@@H](C)O)[C@@H](C)O)[C@@H](C)CC)C(=O)N[C@@H](CC(=O)O)C(=O)N[C@@H](CCCCN)C(=O)N[C@@H](CCCNC(=N)N)C(=O)N[C@@H](C)C(=O)N[C@@H](C)C(=O)NC(C)(C)C(=O)N[C@@H](CC(C)C)C(=O)N[C@@H](Cc1ccccc1)C(=O)N[C@H](C(=O)N[C@@H](CCC(=O)O)C(=O)N[C@@H](Cc1c[nH]c2ccccc12)C(=O)N[C@@H](CC(C)C)C(=O)N[C@@H](CCCCN)C(=O)N[C@@H](C)C(=O)NCC(=O)NCC(=O)N1CCC[C@H]1C(=O)N[C@@H](CO)C(=O)N[C@@H](CO)C(=O)NCC(=O)N[C@@H](C)C(=O)N1CCC[C@H]1C(=O)N1CCC[C@H]1C(=O)N1CCC[C@H]1C(=O)N[C@@H](CO)C(N)=O)[C@@H](C)CC)C(=O)O [SEQ ID NO: 27, Y-Aib-Q-G-T-F-T-S-D-L-S-I-Q-K(yE-x53)-D-K-R-A-A-Aib-L-F-I-E-W-L-K-A-G-G-P-S-S-G-A-P-P-P-S-NH2] (H-Y[Aib]QGTFTSDLSIQK([γGlu-Palmitoyl])DKRAA[Aib]LFIEWLKAGGPSSGAPPPS-NH2) | 0.0147 nM | 0.0389 nM | 0.0826 nM
